PubChem BioAssay (NCI)
Values joined by “and” are separate entries in the source; they are usually repeats but may differ in a detail not shown here. Equal entries are not always repeated.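 Five concentrations, 48 hours, 96-well plates. The concentration for 50% growth inhibition is given as GI50. TGI: concentration producing complete growth inhibition.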

What was measured:
Assay in all cases: NCI-60 cell line screen, 48 h
[1] = system: KM12 colon
[2] = system: HCC-2998 colon
[3] = system: IGROV1 ovarian
[4] = system: DU-145 prostate
[5] = system: SR leukemia
[6] = system: MOLT-4 leukemia
[7] = system: RXF 393 renal
[8] = system: NCI-H226 lung
[9] = system: OVCAR-4 ovarian
[10] = system: SK-OV-3 ovarian

| SMILES | GI50 [1] [µM] | TGI [1] [µM] | GI50 [2] [µM] | TGI [2] [µM] | GI50 [3] [µM] | TGI [3] [µM] | GI50 [4] | TGI [4] | GI50 [5] [µM] | TGI [5] [µM] | GI50 [6] [µM] | TGI [6] [µM] | GI50 [7] [µM] | TGI [7] [µM] | GI50 [8] [µM] | TGI [8] [µM] | GI50 [9] | TGI [9] | GI50 [10] | TGI [10] |
| --- | --- | --- | --- | --- | --- | --- | --- | --- | --- | --- | --- | --- | --- | --- | --- | --- | --- | --- | --- | --- |
| O=C(OCc1ccc2c(Cl)cc(Cl)c(O)c2n1)N1CCN(C(=O)c2cc3cc(F)ccc3[nH]2)CC1 | 0.58 | > 41.3 | 3.95 | > 94.6 | 1.99 | > 100 | 1.94 µM | 18.6 µM | 0.401 | > 100 | 1.02 | > 100 | 3.03 | > 100 | 45.4 | > 100 | 5.37 µM | > 100 µM | 3.6 µM | > 100 µM |
| C/C(=N\NC(=S)N1CC2CCC(CC2)C1)c1ccccn1 | 0.0837 | 1.59 | 0.171 | 1.8 | < 0.01 | 2.29 | 0.408 µM | 2.83 µM | 0.0424 | 2.22 | 0.0598 | 3.74 | 0.226 | 1.3 | 0.394 | 1.91 | 0.0238 µM | 1.1 µM | 0.0465 µM | 1.01 µM |
| CC(C)C1=C2CCC3(C)C(CCC4C5C6OCC5(CCC6(C)C)CCC43C)C2(C)CC1 (stereo not given) |  | 35.2 |  | 33.7 |  | 29.2 |  | 37.5 µM |  | 30.6 |  | 34.6 |  | 48.8 |  | > 100 |  | 77.5 µM |  | > 100 µM |
| O=C(N/N=C/c1ccc([N+](=O)[O-])o1)c1ccc(O)cc1 | 5.43 | > 100 | 4.98 | > 100 | 5.19 | 23.1 | 6.38 µM | > 100 µM | 2.84 | > 100 | 5.69 | > 100 | 12.9 | 73.8 | 12.7 | > 100 | 1.72 µM | 4.51 µM | 17.5 µM | > 100 µM |
| CCCCCCCCCCCCOC1C(C(CC(=O)NCCN2CCCC2)NS(=O)(=O)c2cc(Cl)cc(Cl)c2)OC2OC(C)(C)OC21 (stereo not given) | 1.81 | 3.45 | 2.14 | 4.56 | 1.95 | 3.6 | 1.86 µM and 1.79 µM | 3.45 µM and 3.23 µM | 1.48 | 3.83 | 2.03 | 4.33 | 2.2 | 4.72 | 1.86 | 4.04 | 2 µM and 1.7 µM | 3.7 µM and 3.51 µM | 2.08 µM and 1.32 µM | 3.79 µM and 2.73 µM |
